Literature values, collected in patent US7858592B2, “Interfering RNAs against the promoter region of P53” (The Board of Regents of the University of Texas System, priority 2007, dated 2010).
Where a name gives a salt, the structure may show the parent alone. Blank lines part the entries; values can stand above or below the molecule they belong to.

How the values were obtained:
[1] = not given; remark: listed apart in the source
[2] = not given; remark: listed apart in the source
[3] = system: certain animal tumors

Compound: CC[C@@]1(O)C(=O)OCc2c1cc1n(c2=O)Cc2cc3ccccc3nc2-1 [Camptothecin]
solubility in water: poor water-solubility

Compound: O.O=P1(N(CCCl)CCCl)NCCCO1 (stereo not drawn) [Cyclophosphamide, 2H-1,3,2-Oxazaphosphorin-2-amine, N,N-bis(2-chloroethyl)tetrahydro-, 2-oxide, monohydrate]
local tolerability ([1]; oral and parental routes): does not cause local vesication, necrosis, phlebitis or even pain

excreted into the urine ([2]; in vivo): a few percent
Compound: COc1cccc2c1C(=O)c1c(O)c3c(c(O)c1C2=O)C[C@@](O)(C(=O)CO)C[C@@H]3O[C@H]1C[C@H](N)[C@H](O)[C@H](C)O1 [Doxorubicin, 5,12-Naphthacenedione, (8s-cis)-10-[(3-amino-2,3,6-trideoxy-a-L-lyxo-hexopyranosyl)oxy]-7,8,9,10-tetrahydro-6,8,11-trihydroxy-8-(hydroxyacetyl)-1-methoxy-hydrochloride]

Compound: O=NN(CCCl)C(=O)NC1CCCCC1 [Lomustine, 1-(2-chloro-ethyl)-3-cyclohexyl-1 nitrosourea]
tissue levels versus plasma levels ([2]; 15 minutes after intravenous administration): comparable to plasma levels

Compound: CC[C@]1(O)C[C@H]2CN(CCc3c([nH]c4ccccc34)[C@@](C(=O)OC)(c3cc4c(cc3OC)N(C=O)[C@H]3[C@@](O)(C(=O)OC)[C@H](OC(C)=O)[C@]5(CC)C=CCN6CC[C@]43[C@@H]65)C2)C1 [Vincristine]
toxicity for normal marrow cells and epithelial cells ([1]; in vivo): relatively low toxicity

Compound: N[C@H](Cc1ccc(N(CCCl)CCCl)cc1)C(=O)O [medphalan]
activity relative to the L-isomer [3]: less active
